{"source": "patent US8133912B2", "about": "(priority 2006, dated 2012)", "key": {"[1]": {"system": "cell growth", "type": "cell-based"}, "[2]": {"system": "mouse", "details": "in vivo, po; cited from earlier work"}, "[3]": {"assay": "resolvability (solubility) in ultrapure water", "details": "5 mg scale in 50 μL ultrapure water, stirred"}}}
{"substance": "tetramethyl arsenic [TeMA]", "values": [{"measurement": "IC50 (50% Growth inhibition)", "setting": "[1]", "result": 8000, "unit": "µg/mL"}, {"measurement": "LD50 (50% Lethal dose)", "setting": "[2]", "result": 900, "unit": "mg/kg"}]}
{"substance": "methyl aquocobyrinic acid sodium perchlorate", "values": [{"measurement": "resolvability to water", "setting": "[3]", "result": "No precipitate occurred"}]}
{"substance": "methyl aquocobyrinic acid heptamethyl ester perchlorate [hydrophobic vitamin B12]", "values": [{"measurement": "resolvability to water", "setting": "[3]", "result": "not completely dissolved"}]}
